For twelve compounds, GI50 and TGI results are on record in PubChem BioAssay (NCI).

Several values for one entry are separate records, joined by “and”; a condition that tells them apart may be missing. Equal entries are not always repeated.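 Tested at 5 concentrations; 48 h exposure; 96-well plates; endpoints linearly interpolated, else capped at highest concentration. GI50 is the concentration that inhibits growth by half. Definition used: TGI = concentration required for complete inhibition of growth.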 Bounds are passed on as bounds.

For the first assay, the system named is HT29 colon. The experiment in a line: NCI-60 cell line screen, 48 h.
Take `Cc1ccc2c(C)c3c(ccc4ccccc43)c[n+]2c1`: the GI50 is 33.5 µM and the TGI was > 100 µM.
The matching figures for `COC(=O)/C=C1\S/C(=N\NC(=O)c2cc3ccc2/C=C\c2ccc(cc2)/C=C\3)N(c2ccccc2)C1=O`: 1.93 µM and 4.07 µM.
Take `Fc1ccc(NC(=S)SCc2ccc3c(c2)OCO3)cc1F`: the TGI was 45.3 µM.
The same measure, in the same setting: with `Cc1ccsc1C(=S)Nc1ccc(Cl)c(/C=N/OC(C)(C)C)c1` the figure was 27.1 µM.
Consider `COc1cc2c(c(OC)c1OC)-c1ccc(NNC(N)=S)c(=O)cc1[C@@H](NC(C)=O)CC2`, for which the GI50 was 0.365 µM and the TGI was > 100 µM.
`CCOC(=O)Cn1c(C(F)(F)F)nc2nc(Cl)c(Cl)nc21`: the TGI was > 100 µM.
Take `O=C1NC(=NCCc2cccc(F)c2)S/C1=C\c1ccc2ncccc2c1`: the GI50 was 1.05 µM and the TGI was > 25 µM.
For `COc1cc2c(c3oc4c(O)cccc4c(=O)c13)CC(C(C)(O)CO)O2` (stereo not given), the TGI was > 100 µM.
For `OCc1cc2ccccc2c2c3c(ccc12)OCO3`, the GI50 was 27.5 µM and the TGI was 78.6 µM.
Taken in the same sequence, the figures for `COc1cc2c(cc1OCCCCN1CCN(CC(=O)Nc3ccc(Cl)cc3C(=O)c3ccccc3Cl)CC1)N=CC1CCCN1C2=O` (stereo not given) were 0.25 µM and 1.04 µM.
The matching figures for `OC1CSSC1Cn1cnc2c(Nc3ccc(OCc4cccc(F)c4)c(Cl)c3)ncnc21` (stereo not given): 0.744 µM and 3.91 µM.
`C[C@@H](Oc1cc(-n2cnc3ccc(CN4CCN(C)CC4)cc32)sc1C(N)=O)c1ccccc1C(F)(F)F`: the GI50 is < 0.01 µM and 0.00402 µM; the TGI was 6.51 µM and > 10 µM.

A further assay relates to SK-MEL-5 melanoma. The experiment in a line: NCI-60 cell line screen, 48 h.
Consider `Cc1ccc2c(C)c3c(ccc4ccccc43)c[n+]2c1`, for which the GI50 was 2.25 µM and the TGI is 10.4 µM.
The matching figures for `COC(=O)/C=C1\S/C(=N\NC(=O)c2cc3ccc2/C=C\c2ccc(cc2)/C=C\3)N(c2ccccc2)C1=O`: 7.56 µM and > 100 µM.
Turning to `Fc1ccc(NC(=S)SCc2ccc3c(c2)OCO3)cc1F`, the TGI stood at 29.5 µM.
The same measure, in the same setting: under `Cc1ccsc1C(=S)Nc1ccc(Cl)c(/C=N/OC(C)(C)C)c1` stands > 100 µM.
With `COc1cc2c(c(OC)c1OC)-c1ccc(NNC(N)=S)c(=O)cc1[C@@H](NC(C)=O)CC2`, the GI50 was 0.345 µM and the TGI turned out to be 2.52 µM.
Take `CCOC(=O)Cn1c(C(F)(F)F)nc2nc(Cl)c(Cl)nc21`: the TGI came to 76.9 µM.
`O=C1NC(=NCCc2cccc(F)c2)S/C1=C\c1ccc2ncccc2c1`: the GI50 was 3.41 µM and the TGI was > 25 µM.
Consider `COc1cc2c(c3oc4c(O)cccc4c(=O)c13)CC(C(C)(O)CO)O2` (stereo not given), for which the TGI was > 100 µM.
For the compound `OCc1cc2ccccc2c2c3c(ccc12)OCO3`, the GI50 was 20.6 µM and the TGI came out at 59.9 µM.
With `COc1cc2c(cc1OCCCCN1CCN(CC(=O)Nc3ccc(Cl)cc3C(=O)c3ccccc3Cl)CC1)N=CC1CCCN1C2=O` (stereo not given), the GI50 was 0.183 µM and the TGI is 0.333 µM.
Taken in the same sequence, the figures for `OC1CSSC1Cn1cnc2c(Nc3ccc(OCc4cccc(F)c4)c(Cl)c3)ncnc21` (stereo not given) were 0.733 µM and 2.88 µM.
With `C[C@@H](Oc1cc(-n2cnc3ccc(CN4CCN(C)CC4)cc32)sc1C(N)=O)c1ccccc1C(F)(F)F`, the GI50 is 0.0218 µM and 0.0976 µM; the TGI is 1.51 µM and > 10 µM.

For the next assay, the system named is LOX IMVI melanoma. Nature of the assay: NCI-60 cell line screen, 48 h.
Consider `Cc1ccc2c(C)c3c(ccc4ccccc43)c[n+]2c1`, for which the GI50 was 17.3 µM and the TGI turned out to be 53.6 µM.
Taken in the same sequence, the figures for `COC(=O)/C=C1\S/C(=N\NC(=O)c2cc3ccc2/C=C\c2ccc(cc2)/C=C\3)N(c2ccccc2)C1=O` were 1.69 µM and 3.37 µM.
As for `Fc1ccc(NC(=S)SCc2ccc3c(c2)OCO3)cc1F`, the TGI turned out to be 28.6 µM.
On the same count and under the same terms, under `Cc1ccsc1C(=S)Nc1ccc(Cl)c(/C=N/OC(C)(C)C)c1` stands 48.8 µM.
Regarding `COc1cc2c(c(OC)c1OC)-c1ccc(NNC(N)=S)c(=O)cc1[C@@H](NC(C)=O)CC2`, the GI50 was 0.687 µM and the TGI is > 100 µM.
As for `CCOC(=O)Cn1c(C(F)(F)F)nc2nc(Cl)c(Cl)nc21`, the TGI is > 100 µM.
As for `O=C1NC(=NCCc2cccc(F)c2)S/C1=C\c1ccc2ncccc2c1`, the GI50 is 1.75 µM and the TGI was > 25 µM.
Turning to `COc1cc2c(c3oc4c(O)cccc4c(=O)c13)CC(C(C)(O)CO)O2` (stereo not given), the TGI is > 100 µM.
Consider `OCc1cc2ccccc2c2c3c(ccc12)OCO3`, for which the GI50 was 35.7 µM and the TGI was 118 µM.
Taken in the same sequence, the figures for `COc1cc2c(cc1OCCCCN1CCN(CC(=O)Nc3ccc(Cl)cc3C(=O)c3ccccc3Cl)CC1)N=CC1CCCN1C2=O` (stereo not given) were 0.203 µM and 0.442 µM.
The matching figures for `OC1CSSC1Cn1cnc2c(Nc3ccc(OCc4cccc(F)c4)c(Cl)c3)ncnc21` (stereo not given): 0.121 µM and 0.499 µM.
Consider `C[C@@H](Oc1cc(-n2cnc3ccc(CN4CCN(C)CC4)cc32)sc1C(N)=O)c1ccccc1C(F)(F)F`, for which the GI50 was < 0.018 µM and 0.0231 µM; the TGI is 5.5 µM and > 10 µM.

For the next assay, the system named is SF-268 CNS. Nature of the assay: NCI-60 cell line screen, 48 h.
Regarding `Cc1ccc2c(C)c3c(ccc4ccccc43)c[n+]2c1`, the GI50 is 2.87 µM and the TGI is 15.9 µM.
The matching figures for `COC(=O)/C=C1\S/C(=N\NC(=O)c2cc3ccc2/C=C\c2ccc(cc2)/C=C\3)N(c2ccccc2)C1=O`: 3.09 µM and 11.2 µM.
On to `Fc1ccc(NC(=S)SCc2ccc3c(c2)OCO3)cc1F`, for which the TGI stood at 52.8 µM.
The same measure, in the same setting: under `Cc1ccsc1C(=S)Nc1ccc(Cl)c(/C=N/OC(C)(C)C)c1` stands > 100 µM.
On to `COc1cc2c(c(OC)c1OC)-c1ccc(NNC(N)=S)c(=O)cc1[C@@H](NC(C)=O)CC2`, for which the GI50 is 0.509 µM and the TGI is > 100 µM.
For the compound `CCOC(=O)Cn1c(C(F)(F)F)nc2nc(Cl)c(Cl)nc21`, the TGI is > 100 µM.
As to `O=C1NC(=NCCc2cccc(F)c2)S/C1=C\c1ccc2ncccc2c1`, the GI50 is 10.7 µM and the TGI is > 25 µM.
With `COc1cc2c(c3oc4c(O)cccc4c(=O)c13)CC(C(C)(O)CO)O2` (stereo not given), the TGI is > 100 µM.
Take `OCc1cc2ccccc2c2c3c(ccc12)OCO3`: the GI50 is 33.8 µM and the TGI amounted to 117 µM.
The matching figures for `COc1cc2c(cc1OCCCCN1CCN(CC(=O)Nc3ccc(Cl)cc3C(=O)c3ccccc3Cl)CC1)N=CC1CCCN1C2=O` (stereo not given): 0.268 µM and 0.711 µM.
The matching figures for `OC1CSSC1Cn1cnc2c(Nc3ccc(OCc4cccc(F)c4)c(Cl)c3)ncnc21` (stereo not given): 0.56 µM and 2.9 µM.
As for `C[C@@H](Oc1cc(-n2cnc3ccc(CN4CCN(C)CC4)cc32)sc1C(N)=O)c1ccccc1C(F)(F)F`, the GI50 is 0.0293 µM and 0.0667 µM; the TGI is 16.3 µM and > 10 µM.

In the next assay the test system is UO-31 renal. The experiment in a line: NCI-60 cell line screen, 48 h.
As to `Cc1ccc2c(C)c3c(ccc4ccccc43)c[n+]2c1`, the GI50 was 27.8 µM and the TGI was > 100 µM.
Taken in the same sequence, the figures for `COC(=O)/C=C1\S/C(=N\NC(=O)c2cc3ccc2/C=C\c2ccc(cc2)/C=C\3)N(c2ccccc2)C1=O` were 1.53 µM and 3.08 µM.
On to `Fc1ccc(NC(=S)SCc2ccc3c(c2)OCO3)cc1F`, for which the TGI stood at 37.9 µM.
Same read-out and setting: under `Cc1ccsc1C(=S)Nc1ccc(Cl)c(/C=N/OC(C)(C)C)c1` stands > 100 µM.
Consider `COc1cc2c(c(OC)c1OC)-c1ccc(NNC(N)=S)c(=O)cc1[C@@H](NC(C)=O)CC2`, for which the GI50 is > 25.9 µM and the TGI was > 100 µM.
Compound `CCOC(=O)Cn1c(C(F)(F)F)nc2nc(Cl)c(Cl)nc21` displayed a TGI of 10.9 µM.
Turning to `O=C1NC(=NCCc2cccc(F)c2)S/C1=C\c1ccc2ncccc2c1`, the GI50 is 16.7 µM and the TGI is > 25 µM.
Turning to `COc1cc2c(c3oc4c(O)cccc4c(=O)c13)CC(C(C)(O)CO)O2` (stereo not given), the TGI was > 100 µM.
Turning to `OCc1cc2ccccc2c2c3c(ccc12)OCO3`, the GI50 was 26.3 µM and the TGI was determined as 108 µM.
Taken in the same sequence, the figures for `COc1cc2c(cc1OCCCCN1CCN(CC(=O)Nc3ccc(Cl)cc3C(=O)c3ccccc3Cl)CC1)N=CC1CCCN1C2=O` (stereo not given) were 0.267 µM and 0.817 µM.
Taken in the same sequence, the figures for `OC1CSSC1Cn1cnc2c(Nc3ccc(OCc4cccc(F)c4)c(Cl)c3)ncnc21` (stereo not given) were 1.45 µM and 6.55 µM.
As for `C[C@@H](Oc1cc(-n2cnc3ccc(CN4CCN(C)CC4)cc32)sc1C(N)=O)c1ccccc1C(F)(F)F`, the GI50 is 1.67 µM and 0.776 µM; the TGI was 16.6 µM and > 10 µM.
